Assay results as given in patent US20230414786A1, “PERFUSION-GUIDED GENE THERAPY FOR IMPROVING CANCER TREATMENT” (priority 2022, published 2023).

Columns and labels:
[1] = cited from earlier work
[2] = system: iNOS; assay: ELISA of protein extracts from transfected NGP cells (iNOS expression); type: cell-based, H. sapiens; conditions: NGP cell protein extracts, n=3
[3] = system: iNOS expression in tumor endothelium of NGP tumors; assay: iNOS immunohistochemistry in tumor endothelium (lectin-positive area) 72 h after sonopermeation transfection; type: in vivo, nude athymic mice; conditions: 72 h after transfection
Excerpt: (§1) Orthotopic NGP Tumor Model and Implantation. NGP cells were MYC-N amplified, and thus function as an appropriate model for poor prognosis NB. They reproduce many features of clinical NB, such as histology, frequency, and location of metastatic lesions when renally implanted, as was done in nude athymic mice (Charles River, Wilmington, Mass.) to generate tumor models for this study. Mice were firstly anesthetized with inhalable isoflurane. After being positioned in a sterile environment, the entire right side of each mouse was cleaned with ethanol and painted with Betadine. A 3-5 mm diagonal incision was made with a scalpel blade toward the ribcage atop the kidney. The underlying fascia was cut with scissors to expose the right kidney. A 27-gauge needle (of length 1.3 cm, BD Biosciences) fitted to a syringe containing 20 μL of cell suspension (1×10^6 NGP cells in Phosphate Buffered Saline, Leibniz Institute DSMZ-GmbH, Braunschweig, Germany) was inserted into the kidney and its contents injected slowly. The kidney was then returned to the abdominal cavity. […] Mice were monitored daily to confirm complete recovery, and tumors were allowed to grow for 4-5 weeks (1-2-g weight) before ultrasound experiments were initiated. […]
Quantitative Ex Vivo Imaging. […] The images were then analyzed in ImageJ (NIH, USA), selecting the lectin-positive area of the picture taken to create the area to be quantified. […]

[4] = system: iNOS expression in adjacent glomeruli; assay: iNOS immunohistochemistry in adjacent kidney glomeruli after sonopermeation transfection; type: in vivo, nude athymic mice; conditions: p>0.05
Excerpt: Quantitative Ex Vivo Imaging. For iNOS expression colocalization studies, sections were imaged on a Marianas Confocal (Zeiss) using a 40X oil objective, capturing 14 steps of 0.33 μm on the z-axis, with a resolution of 0.33 μm per pixel. At least five images of each tumor of were taken, with four tumors per group. To avoid bias, the endothelial marker Isolectin-B4 was used to determine image capture and focus and iNOS staining was captured at equal exposure times for all tissues. The images were then analyzed in ImageJ (NIH, USA), selecting the lectin-positive area of the picture taken to create the area to be quantified. This area was then used to quantify the mean intensity of the iNOS staining within the tumor endothelium. The mean iNOS intensity within each tumor endothelium z-stack was then averaged to obtain the mean iNOS intensity of each tumor blood vessel analyzed. Averages were then obtained for each tumor. Because tumor cells were injected directly into the kidney and often coopt glomeruli and tubules (PMID: 24066611), NOS expression was quantified in the adjacent kidney in a separate analysis, following the same method as tumor iNOS quantification. Quantification of pimonidazole and Isolectin was performed using the average intensities from the respective stains comparing the iNOS treated and Sham groups using FIJI (NIH). […]

[5] = system: orthotopic NGP tumor; assay: Quantitative contrast-enhanced ultrasound (qCEUS) imaging of tumor perfusion volume and reperfusion rate; type: in vivo, nude athymic mice
Excerpt: as §1, with “kidney.” for “kidney. A 27-gauge needle (of length 1.3 cm, BD Biosciences) fitted to a syringe containing 20 μL of cell suspension (1×10^6 NGP cells in Phosphate Buffered Saline, Leibniz Institute DSMZ-GmbH, Braunschweig, Germany) was inserted into the kidney and its contents injected slowly. The kidney was then returned to the abdominal cavity.”
3D Volume and 2D Perfusion Imaging. […] Data were collected and subsequently analyzed using custom LabVIEW software, where tumor boundaries were manually segmented. […] As described in Wei K, et al., Quantification of Myocardial Blood Flow With Ultrasound-Induced Destruction of Microbubbles Administered as a Constant Venous Infusion, Circulation, 1998; 97: 473-83, MB perfusion conforms to the equation y=A (1−e^βt), where A is the relative blood volume (RBV) and β is the rate of reperfusion. […]

[6] = system: orthotopic NGP tumor; assay: Immunohistochemical analysis of tumor vascularity and hypoxia (Isolectin-B4, aSMA, pimonidazole) 72 h after transfection; type: in vivo, nude athymic mice; parameters: unit not given here
Method: Tumoral Hypoxia Measurements. 60 mg/kg pimonidazole-HCl (Hypoxyprobe, Massachusetts) was injected intraperitoneally 30 min before sacrifice, and tissues were harvested and processed as described above.
Immunohistochemistry. Excised NGP tumors were embedded in Tissue-Tek® optimum cutting temperature (O.C.T.) compound (Electron Microscopy Services), then stored at −20 ° C. until cryosectioned (Leica CM1860). 15 μm thick cryosections were fixed with acetone and permeabilized with Tween 20. […]
Quantitative Ex Vivo Imaging. […] The images were then analyzed in ImageJ (NIH, USA), selecting the lectin-positive area of the picture taken to create the area to be quantified. This area was then used to quantify the mean intensity of the iNOS staining within the tumor endothelium. The mean iNOS intensity within each tumor endothelium z-stack was then averaged to obtain the mean iNOS intensity of each tumor blood vessel analyzed. […] Because tumor cells were injected directly into the kidney and often coopt glomeruli and tubules (PMID: 24066611), NOS expression was quantified in the adjacent kidney in a separate analysis, following the same method as tumor iNOS quantification. Quantification of pimonidazole and Isolectin was performed using the average intensities from the respective stains comparing the iNOS treated and Sham groups using FIJI (NIH). […]

[7] = system: orthotopic NGP tumor; assay: Animal survival study (days for tumors to increase by 50% above starting volume, up to 14 days); type: in vivo, nude athymic mice; conditions: plasmid transfection followed by L-DOX with sonopermeation; study endpoint 14 days
Method: Animal Survival Studies. Survival in vivo experiments were performed as detailed above. Briefly, mature tumors were primed with gene therapy (either mKate or iNOS), transfected by sonopermeation with 1×10^9 cationic polydispersed MBs having median diameter ˜2 μm. 72 h following gene therapy treatment, sonopermeation was performed using net-neutral lipid MBs to deliver liposomal doxorubicin as described above. For this experiment, due to the volume of bubbles needed, size-isolated microbubbles (SIMBs) were obtained from Advanced Microbubbles Inc to perform imaging and sonopermeation. Tumors were measured every other day until they reached the endpoint criteria up to 14 days using calipers, and re-imaged with a bolus of 1×10^7 SIMBs on Day 7 as well as re-dosed with L-DOX in conjunction with sonopermeation. Normalized tumor growth over the two-week observation period was obtained by dividing the volume on any given day by initial tumor volume. Kaplan-Meier curves were generated to plot the number of days it took for tumors to increase by 50% above their starting volume up to 14 days. Survival curves were plotted, and statistical analyses were conducted in Graphpad (Prism 6). Statistical significance between groups represents Mantel-Cox test, with p<0.05 interpreted as significant.

[N]=O [NO, Nitric oxide]
half-life in vivo ([1]; in vivo): < 0.002 s | half-life in whole blood ([1]; whole blood): 0.0018 s

Sham
iNOS protein by ELISA [2]: 0.04 units | iNOS in tumor endothelial cells compared with untreated tumors [3]: no change in iNOS | iNOS mean intensity within lectin-positive area ([3]; n=4 per group): 8,814±2,952 | iNOS expression in adjacent glomeruli [4]: remains unchanged | change in RBV (normalized to tumor volume, vascularity) from baseline ([5]; 3 days post-transfection): 68±7% | rate of MB reperfusion (RR) normalized to TV ([5]; day 3 after transfection): 77±8% | distance between aSMA pericytes and endothelium [6]: 5.8±1.1 | median survival time (time to 50% tumor growth) [7]: 9 days
